Data taken from the supplement of paper PMC10307832.

Legend:
Experiment in all cases: relative viability (nuclei count vs DMSO), 5 days (fraction); higher = more cells survive
IU1-47 + Luminespib = compound: CC1=CC(=C(N1C2=CC=C(C=C2)Cl)C)C(=O)CN3CCCCC3 [IU1-47] + CCNC(=O)c1noc(-c2cc(C(C)C)c(O)cc2O)c1-c1ccc(CN2CCOCC2)cc1 [Luminespib] (partner 0.01 µM)
How it was run: (§1)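 After 5 days of treatment, lung cancer cells in 1536-well plates were fixed and stained in a single step (final 0.05% Triton X-100, 1% formaldehyde, 1 ug/ml Hoechst) and their nuclei counted on 4× images. Treatment had been applied by pin tool the day after seeding as one drug alone or as a fixed anchor-drug dose with five library-drug doses (not always all listed) in √10 steps. Relative viability is the nuclei count of treated wells divided by that of vehicle wells, and values are medians of duplicate plates.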

IU1-47 + Olaparib = compound: CC1=CC(=C(N1C2=CC=C(C=C2)Cl)C)C(=O)CN3CCCCC3 [IU1-47] + O=C(c1cc(Cc2n[nH]c(=O)c3ccccc23)ccc1F)N1CCN(C(=O)C2CC2)CC1 [Olaparib] (partner 8 µM)
How it was run: as §1

FG-4592 + Pictilisib = compound: Cc1nc(C(=O)NCC(=O)O)c(O)c2ccc(Oc3ccccc3)cc12 [FG-4592] + CS(=O)(=O)N1CCN(Cc2cc3nc(-c4cccc5[nH]ncc45)nc(N4CCOCC4)c3s2)CC1 [Pictilisib] (partner 1 µM)
How it was run: as §1

FG-4592 + AZD7762 = compound: Cc1nc(C(=O)NCC(=O)O)c(O)c2ccc(Oc3ccccc3)cc12 [FG-4592] + NC(=O)Nc1cc(-c2cccc(F)c2)sc1C(=O)N[C@H]1CCCNC1 [AZD7762] (partner 0.2 µM)
How it was run: as §1

Cell Line	relative viability (IU1-47 + Luminespib; first compound 0.08 µM)	relative viability (IU1-47 + Luminespib; first compound 0.253 µM)	relative viability (IU1-47 + Luminespib; first compound 0.8 µM)	relative viability (IU1-47 + Luminespib; first compound 2.53 µM)	relative viability (IU1-47 + Luminespib; first compound 8 µM)	relative viability (IU1-47 + Olaparib; first compound 0.08 µM)	relative viability (IU1-47 + Olaparib; first compound 0.253 µM)	relative viability (IU1-47 + Olaparib; first compound 0.8 µM)	relative viability (IU1-47 + Olaparib; first compound 2.53 µM)	relative viability (IU1-47 + Olaparib; first compound 8 µM)	relative viability (FG-4592 + Pictilisib; first compound 0.08 µM)	relative viability (FG-4592 + Pictilisib; first compound 0.253 µM)	relative viability (FG-4592 + Pictilisib; first compound 0.8 µM)	relative viability (FG-4592 + Pictilisib; first compound 2.53 µM)	relative viability (FG-4592 + Pictilisib; first compound 8 µM)	relative viability (FG-4592 + AZD7762; first compound 0.08 µM)	relative viability (FG-4592 + AZD7762; first compound 0.253 µM)	relative viability (FG-4592 + AZD7762; first compound 0.8 µM)	relative viability (FG-4592 + AZD7762; first compound 2.53 µM)	relative viability (FG-4592 + AZD7762; first compound 8 µM)
NCI-H1975	0.142	0.198	0.199	0.228	0.37	0.858	0.773	0.748	1.02	0.78	0.284	0.266	0.259	0.253	0.244	0.782	0.644	0.684	0.712	0.709
CAL-12T	0.878	0.291	0.363	0.438	0.495	0.705	0.726	0.747	0.797	0.863	0.516	0.494	0.221	0.555	0.523	0.594	0.59	0.513	0.523	0.717
NCI-H1623	0.602	0.611	0.519	0.456	0.661															
HCC-44	1.17	1.03	1.11	0.987	1.21	1.07	0.978	1.03	1.06	0.93	0.569	0.609	0.498	0.614	0.602	0.993	1.01	1.16	1.06	0.997
EKVX	1.01	1.05	0.881	1.02	0.978	0.827	1.06	0.896		0.87	0.395	0.377	0.478	0.428	0.441	0.732	0.628	0.758	0.665	0.747
NCI-H1651	0.876	0.85	0.924	0.974	0.819	0.155	0.162	0.17	0.183	0.185	0.541	0.575	0.534	0.635	0.454	0.474	0.455	0.433	0.442	0.455
NCI-H1944	0.989	0.764	0.832	0.729	0.778	0.433	0.409	0.398	0.356	0.427	0.3	0.336	0.294	0.356	0.363	0.479	0.675	0.368	0.509	0.471
NCI-H1703						0.387	0.39	0.447	0.355	0.487	0.271	0.236	0.218	0.253	0.245	0.138	0.135	0.12		0.126
Calu-6						0.618	0.566	0.586	0.617	0.616	0.885	0.859	0.921	0.902	0.856					
EBC-1						0.685	0.691	0.696	0.663	0.766	0.401	0.371	0.417	0.387	0.335					
SW 1573	0.196	0.179	0.129	0.261	0.23	0.592	0.462	0.445	0.453	0.501	0.504	0.402	0.443	0.56	0.484					
A-427	0.999	0.89	0.971	1.04	0.872	0.81	0.811	0.716	0.82	0.711	0.674	0.739	0.503	0.661	0.742	0.757	0.777	0.665	0.773	0.717
NCI-H2347	0.233	0.363	0.642	0.513	0.32	0.652	0.607	0.628	0.562	0.603	0.0319	0.633	0.434	0.567	0.562	0.72	0.546	0.724	0.85	0.744
NCI-H1355	0.773	0.721	0.735		0.64	0.781	0.826	0.751		0.781	0.389	0.393		0.379	0.366	0.907	0.669		0.809	0.723
NCI-H358	0.366	0.328	0.347	0.3	0.349	0.704	0.784	0.55	0.705	0.436	0.323	0.344	0.289	0.292	0.326	0.44	0.502	0.55	0.502	0.458
NCI-H2228	0.154	0.122	0.162	0.144	0.132	0.738	0.575	0.596	0.869	0.504	0.423	0.36	0.248	0.45	0.284					
